{"source": "patent US7629447B2", "about": "“Dideoxynucleoside derivatives” (Wako Pure Chemical Industries, Ltd., priority 2006, dated 2009)", "key": {"[1]": {"tested_on": "complementary RNA oligonucleotide (SEQ ID NO:9 or SEQ ID NO:10)", "test": "Thermal stability test, measurement of Tm (DNA/RNA match duplex)", "assay_type": "binding", "settings": "for Tm of the duplex DNA/RNA compared with that of T-1 (control) and T-2 (control), in words: versus oligonucleotides of only naturally occurring nucleosides; for Tm of the duplex DNA/RNA compared with that of T-1 (control) and T-2 (control), in words / ΔTm / Tm: duplex DNA/RNA; for ΔTm: difference from the matching control (T-1 or T-2); for Tm: same method as Example 3 (3 μM, 10 mM sodium phosphate buffer, 100 mM sodium chloride, pH 7.0)", "experimental": "(§1) That is, using a UV-2450 SPECTROPHOTOMETER equipped with a temperature-variable device (produced by Shimadzu Corp.), the oligonucleotides were placed in 8 consecutive 10 mm cells under the nitrogen atmosphere, and 10 mM of sodium phosphate buffer and 100 mM of sodium chloride (pH 7.0) were added thereto so that the concentration of each oligonucleotide became 3 μM, then the temperature was increased from 20° C. to 90° C. with a climbing rate of 0.5° C. per minute, and absorbance at 260 nm were measured.\nUsing commercially available rA-CE phosphoramidite, rU-CE phosphoramidite and rC-CE phosphoramidite as materials, also using 3′-dU-CPG (all of them were produced by Glen research Corp.) as a starting material, complementary oligonucleotides to each of UNF-1 and UNF-2 which were prepared in Example 2, were synthesized according to the same method as in Example 2.\nUsing UNF-1 and UNF-2, which were synthesized in Example 2, and the complementary oligonucleotides thereto shown in Table 2 as materials, a duplex DNA/RNA was prepared according to the conventional method (R. Kierzek et al., Biochemistry, 1986, vol. 25, pp. 7840-7846).\nUsing the obtained duplexes DNA/RNA, thermal stability test was carried out according to the same method as in Example 3.\nA duplex DNA/RNA formed between TN-1 synthesized in Comparative Example 2 and a complementary oligonucleotide thereto represented by SEQ ID NO:9, and a duplex DNA/RNA formed between TN-2 synthesized in Comparative Example 2 and a complementary oligonucleotide thereto represented by SEQ ID NO:10 were synthesized according to the same method as in Example 4. Thermal stabilities of these duplex nucleic acids obtained were examined according to the same method as in Example 4.\nIn addition, a duplex DNA/RNA formed between T-1 (control) synthesized in Comparative Example 2 and a complementary oligonucleotide thereto represented by SEQ ID NO:9, and a duplex DNA formed between T-2 (control) synthesized in Comparative Example 2 and a complementary oligonucleotide thereto represented by SEQ ID NO:10 were synthesized according to the same method as in […]. Thermal stabilities of these duplex nucleic acids obtained were examined according to the same method as in Example 4."}, "[2]": {"tested_on": "complementary DNA oligonucleotide (SEQ ID NO:7 or SEQ ID NO:8)", "test": "Thermal stability test, measurement of Tm (DNA/DNA match duplex)", "assay_type": "binding", "settings": "for Tm of the duplex DNA/DNA compared with that of T-1 (control) and T-2 (control), in words: versus oligonucleotides of only naturally occurring nucleosides; for Tm of the duplex DNA/DNA compared with that of T-1 (control) and T-2 (control), in words / Tm / ΔTm: duplex DNA/DNA; for Tm: 3 μM each oligonucleotide, 10 mM sodium phosphate buffer, 100 mM sodium chloride, pH 7.0, 20 to 90° C. at 0.5° C. per minute, absorbance at 260 nm; for ΔTm: difference from the matching control (T-1 or T-2)", "text": "Using commercially available dT-CE phosphoramidite and dA-CE phosphoramidite (both of them were produced by Glen research Corp.) as materials, also using 3′-dT-CPG (1 μmol) packed in a column (produced by Glen research Corp.) as a starting material, oligonucleotides were synthesized according to the same method as in Example 2, in order to obtain oligonucleotides which were each complementary to UNF-1 and UNF-2 obtained in Example 2, respectively. The base sequences of oligonucleotides complementary to UNF-1 (SEQ ID NO:7) and complementary to UNF-2 (SEQ ID NO:8) are shown in Table 2 below.\nUsing UNF-1 and UNF-2, which were synthesized in Example 2, and complementary oligonucleotides thereto shown in Table 2 as materials, duplexes DNA/DNA were prepared according to the conventional method (R. Kierzek et al., Biochemistry, 1986, vol. 25, pp. 7840-7846).\nUsing the obtained duplex DNA/DNA, thermal stability test was carried out according to the conventional method.\nas §1\n(§2) A duplex DNA/DNA formed between TN-1 synthesized in Comparative Example 2 and a complementary oligonucleotide thereto represented by SEQ ID NO:7, and a duplex formed DNA/DNA between TN-2 synthesized in Comparative Example 2 and a complementary oligonucleotide thereto represented by SEQ ID NO:8 were synthesized according to the same method as in Example 3. The thermal stability of these duplex nucleic acids obtained was examined according to the same method as in Example 3.\nas §2, with “In addition, a duplex” for “A duplex”, “between T-1 (control)” for “between TN-1”, “duplex DNA” for “duplex formed DNA/DNA”, “between T-2 (control)” for “between TN-2”, “3. Thermal” for “3. The thermal”, “3. The results were shown together in FIG. 1.” for “3.”"}}, "note": "[5NF] = 5'-amino-2'-fluoro-2',5'-dideoxyuridine unit, linked through its 5'-amino group; d = 2'-deoxy (DNA)"}
{"substance": "TN-2: SEQ ID NO:4, 5′-(AAG GAA T^NT^NG AGG AAA GA)-3′; T^N = introduced 5′-aminothymidine (comparative) (AAGGAANNGAGGAAAGA; 5'-aminothymidines, chemistry not fully specified)", "values": [{"measurement": "Tm of the duplex DNA/RNA compared with that of T-1 (control) and T-2 (control), in words", "setting": "[1]", "value": "lower"}, {"measurement": "ΔTm", "setting": "[1]", "value": "−5.0"}, {"measurement": "Tm", "setting": "[1]", "value": 39, "unit": "°C"}, {"measurement": "Tm of the duplex DNA/DNA compared with that of T-1 (control) and T-2 (control), in words", "setting": "[2]", "value": "lower"}, {"measurement": "Tm", "setting": "[2]", "value": 48.3, "unit": "°C"}, {"measurement": "ΔTm", "setting": "[2]", "value": "−5.2"}]}
{"substance": "T-2 (control): SEQ ID NO:6, 5′-d(AAG GAA TTG AGG AAA GA)-3′; oligonucleotide comprising only naturally occurring nucleosides (AAGGAATTGAGGAAAGA; unmodified DNA)", "values": [{"measurement": "Tm", "setting": "[1]", "value": 44, "unit": "°C"}, {"measurement": "Tm", "setting": "[2]", "value": 53.5, "unit": "°C"}]}
{"substance": "T-1 (control): SEQ ID NO:5, 5′-d(AAG GAA ATG AGG AAA GA)-3′; oligonucleotide comprising only naturally occurring nucleosides (AAGGAAATGAGGAAAGA; unmodified DNA)", "values": [{"measurement": "Tm", "setting": "[1]", "value": 42.1, "unit": "°C"}, {"measurement": "Tm", "setting": "[2]", "value": 52.9, "unit": "°C"}]}
{"substance": "UNF-1: SEQ ID NO:1, 5′-(AAG GAA AU^NFG AGG AAA GA)-3′; U^NF = introduced 5′-amino-2′-fluoro-2′,5′-dideoxyuridine (AAGGAAAUGAGGAAAGA; sugars from the 5' end d7 [5NF]1 d9, backbone not given here)", "values": [{"measurement": "Tm of the duplex DNA/RNA compared with that of T-1 (control) and T-2 (control), in words", "setting": "[1]", "value": "equivalent"}, {"measurement": "ΔTm", "setting": "[1]", "value": "−0.2"}, {"measurement": "Tm", "setting": "[1]", "value": 41.9, "unit": "°C"}, {"measurement": "Tm of the duplex DNA/DNA compared with that of T-1 (control) and T-2 (control), in words", "setting": "[2]", "value": "equivalent"}, {"measurement": "Tm", "setting": "[2]", "value": 51.8, "unit": "°C"}, {"measurement": "ΔTm", "setting": "[2]", "value": "−1.1"}]}
{"substance": "TN-1: SEQ ID NO:3, 5′-(AAG GAA AT^NG AGG AAA GA)-3′; T^N = introduced 5′-aminothymidine (comparative) (AAGGAAANGAGGAAAGA; 5'-aminothymidine, chemistry not fully specified)", "values": [{"measurement": "Tm of the duplex DNA/RNA compared with that of T-1 (control) and T-2 (control), in words", "setting": "[1]", "value": "lower"}, {"measurement": "ΔTm", "setting": "[1]", "value": "−4.4"}, {"measurement": "Tm", "setting": "[1]", "value": 37.7, "unit": "°C"}, {"measurement": "Tm of the duplex DNA/DNA compared with that of T-1 (control) and T-2 (control), in words", "setting": "[2]", "value": "lower"}, {"measurement": "Tm", "setting": "[2]", "value": 50.6, "unit": "°C"}, {"measurement": "ΔTm", "setting": "[2]", "value": "−2.3"}]}
{"substance": "UNF-2: SEQ ID NO:2, 5′-(AAG GAA U^NFU^NFG AGG AAA GA)-3′; U^NF = introduced 5′-amino-2′-fluoro-2′,5′-dideoxyuridine (AAGGAAUUGAGGAAAGA; sugars from the 5' end d6 [5NF]2 d9, backbone not given here)", "values": [{"measurement": "Tm compared with that of UNF-1, in words", "setting": "[1]; duplex DNA/RNA (Table 5), two UNFs versus one UNF", "value": "higher"}, {"measurement": "Tm of the duplex DNA/RNA compared with that of T-1 (control) and T-2 (control), in words", "setting": "[1]", "value": "equivalent"}, {"measurement": "ΔTm", "setting": "[1]", "value": "−0.5"}, {"measurement": "Tm", "setting": "[1]", "value": 43.5, "unit": "°C"}, {"measurement": "Tm compared with that of UNF-1, in words", "setting": "[2]; duplex DNA/DNA (Table 3), two UNFs versus one UNF", "value": "higher"}, {"measurement": "Tm of the duplex DNA/DNA compared with that of T-1 (control) and T-2 (control), in words", "setting": "[2]", "value": "equivalent"}, {"measurement": "Tm", "setting": "[2]", "value": 52.1, "unit": "°C"}, {"measurement": "ΔTm", "setting": "[2]", "value": "−1.4"}]}
